Tests used:
MAB-002 = experiment: Five freeze-thaw cycles of MAB-002 in formulations with different polyols, HMW species formation; assay type: physicochemical; conditions: MAB-002 5 mg/ml, 10 mM histidine pH 6.0, various polyol concentrations
Description: This experiment compared mannitol to other polyols with different maximum solubilities with respect to their abilities to induce aggregation during freeze-thaw. A monoclonal antibody referred to as MAB-002 was dialyzed into different liquid formulations containing mannitol, galactitol, or sorbitol, respectively, at various concentrations. Each formulation also contained 10 mM histidine, pH 6.0. The final concentration of MAB-002 in each of the liquid formulations was 5 mg/ml. Each formulation was then subject to five cycles of freeze-thaw, and monitored for HMW species formation. Changes in the percentage of HMW species was plotted against the polyol concentrations in FIG. 3.

[1] = tested on: four monoclonal antibodies (mAb2, mAb3, mAb4, mAb5), a cytokine and a fusion protein; experiment: Five freeze-thaw cycles of six proteins in 250 mM mannitol or sorbitol, HMW species formation; assay type: physicochemical; conditions: each protein 1 mg/ml, 10 mM histidine pH 6.0, 250 mM polyol
Description: Six different proteins including four different monoclonal antibodies (referred to as mAb2, mAb3, mAb4, and mAb5), a cytokine and a fusion protein were dialyzed into 10 mM histidine, pH 6.0, and 250 mM mannitol or sorbitol. The final concentration of each protein was 1 mg/ml. The formulations were then subject to five cycles of freeze-thaw as described above, and monitored for HMW species formation.

[2] = Sub ambient DSC scan of formulation during cooling and warming; assay type: physicochemical; conditions: formulation containing the polyol
[3] = cited from earlier work

SMILES	Induction of aggregation (change in percentage of HMW species) (MAB-002)	Protein aggregation (HMW species formation) [1]	Crystallization during cooling and warming [2]	Maximum solubility [3] [mM]
OC[C@@H](O)[C@@H](O)[C@H](O)[C@@H](O)CO [sorbitol]	did not induce aggregation significantly compared to mannitol	suppresses aggregation of multiple proteins	no crystallization occurred	4500
OC[C@@H](O)[C@@H](O)[C@H](O)[C@H](O)CO [mannitol]		considerably more protein aggregation		1000
OC[C@@H](O)[C@H](O)[C@H](O)[C@@H](O)CO [galactitol]	induced aggregation at low concentrations and at a faster rate compared to mannitol			180

From patent US20080200655A1, “Protein Formulations Containing Sorbitol” (Wyeth, priority 2007, published 2008)
